The values that follow come from ChEMBL document CHEMBL1157539, “Thousands of chemical starting points for antimalarial lead identification” (Nature, 2010).

Molecules are shown by their SMILES.

In this experiment the test system is Plasmodium falciparum. In words: GSK_TCMDC: Inhibition of Plasmodium falciparum 3D7 in whole erythrocytes, using parasite LDH activity as an index of growth. The format is functional, organism-based. To be noted: Plasmodium falciparum, 3D7.
Regarding `NCCCNc1nc(Nc2ccc(C(F)(F)F)cc2F)c2c(=O)[nH]ccc2n1`, the XC50 was 1050 nM.

`O=C(OCC1CCN(Cc2ccccc2)C1)c1ccc(Cl)cc1` (stereo not given) came in with an XC50 of 680 nM.

`COc1cc(C(C)C)nc2ccc(NC(=O)c3ccc(C(=O)Nc4ccc5nc(C(C)C)cc(OC)c5c4)cc3)cc12`: the XC50 came out at 579 nM.

Molecule `O=C(/C=C/c1ccc(Cl)c(Cl)c1)NCCCCCN1CCCN(C(=O)Nc2cc(Cl)nc(Cl)c2)CC1` registered an XC50 of 786 nM.

`O=C(Nc1ccc2c(c1)CCN2C1CCN(Cc2ccc(O)cc2)C1)c1ccco1` (stereo not given) had an XC50 of 897 nM.

`COC(=O)[C@@H](NC(=O)[C@H](Cc1ccc(OC)c(OC)c1)Nc1ccc(C#N)c2ccccc12)c1ccc(O)cc1`: the XC50 was 751 nM.

`CCn1c(Sc2ccc([N+](=O)[O-])c(C#N)c2)nnc1-c1ccc(Cl)cc1` came in with an XC50 of 1000 nM.

Molecule `CCCCCN1C(=O)C(c2ccccc2)(c2ccccc2)N=C1N` came in with an XC50 of 793 nM.

`CC1CN(Cc2ccccc2)CCN1c1ccc(NC(=O)c2cccs2)cc1` (stereo not given) gave an XC50 of 276 nM.

The molecule `O=S(=O)(Nc1ccc(CCN2CCC(N3CCCCC3)CC2)cc1)c1cccc(C(F)(F)F)c1` returned an XC50 of 702 nM.

In turn, `CCCCNC(=O)c1[nH]c2c(NC(=O)COc3ccccc3)cccc2c1-c1cccc(NC(=O)C(N)CO)c1` (stereo not given) had an XC50 of 852 nM.

Molecule `CC(=O)Nc1ccc(CN(Cc2ccc(OC(C)(C)C)cc2)Cc2ccc3c(c2)OCCO3)cc1` gave an XC50 of 927 nM.

With `CCCCCN1CCCCC(NS(=O)(=O)c2ccc(C(=O)Nc3ccc(C(F)(F)F)cc3)cc2)C1` (stereo not given), the XC50 came out at 768 nM.

`O=[N+]([O-])c1ccccc1C=NN=c1cc[nH]c2ccccc12` registered an XC50 of 863 nM.

For `CC1CN(S(=O)(=O)c2ccc(NC(=O)c3cc(-c4ccccc4O)n[nH]3)cc2)CC(C)O1` (stereo not given), the XC50 is 832 nM.

For `Cc1cccc2nc(-c3ccc(-c4cccc(NC(=O)Nc5ccc(F)c(F)c5F)c4)cc3)[nH]c12`, the XC50 worked out at 338 nM.

Molecule `N=C(N)Nc1ccc(OCCCCCOc2ccc(NC(=N)N)c(Cl)c2)cc1Cl` had an XC50 of 857 nM.

`CC1Cc2ccccc2N1CC(=O)Nc1cc(C(F)(F)F)ccc1-n1cncn1` (stereo not given) gave an XC50 of 321 nM.

Regarding `O=C(/C=C/c1ccc(Cl)c(Cl)c1)NCCCCCN1CCC(CCNC(=O)/C=C/c2ccc(Cl)c(Cl)c2)CC1`, the XC50 came out at 561 nM.

Turning to `CCCc1c(C(=O)Nc2ccc3c(c2)CCN(C2CCC2)CC3)cnn1-c1ccc(Cl)cc1`, the XC50 came to 858 nM.

Molecule `CN1CCCC1CCOc1ccc2c(c1)N(C(=O)Nc1cc(Br)cc(C(F)(F)F)c1)CC2` (stereo not given) came in with an XC50 of 247 nM.

Turning to `c1ccc(CN2CCC(NCc3ccccc3-c3ccc(CNC4CCCC4)cc3)CC2)cc1`, the XC50 worked out at 912 nM.

In the case of `CN1CCCC1CCNc1ncc2c(-c3ccc(NC(=O)Nc4cc(C(F)(F)F)ccc4F)cc3)nn(C)c2n1` (stereo not given), the XC50 worked out at 344 nM.

As for `Cc1cc(CN2CC[C@H](NC(=O)c3ccc(Cl)c(Cl)c3)C2)ccc1OC1CCN(Cc2ccccc2)CC1`, the XC50 was 906 nM.

Molecule `COc1ccc(Nc2nccc(NCC(O)c3cccc(C(F)(F)F)c3)n2)cc1` (stereo not given) showed an XC50 of 886 nM.

Turning to `Cc1ccc(C2(CN3CCC(NC(=O)c4n[nH]cc4Cl)CC3)CCCCC2)cc1`, the XC50 was 321 nM.

Molecule `COc1ccc(CNC2CCN(C)CC2)cc1-c1ccc(S(=O)(=O)NCCc2ccccn2)cc1` showed an XC50 of 1090 nM.

`NC(=O)c1cccc(C(=O)Nc2ccc(-c3cccc(-c4nc5cc(F)ccc5[nH]4)c3)cc2)c1` had an XC50 of 865 nM.

`Cc1noc(C)c1-c1cccc(CNCc2cccc(-c3ccc(-c4nc5cccc(C)c5[nH]4)s3)c2)c1` had an XC50 of 211 nM.

`Cc1cccc2nc(-c3ccc(-c4ccc(NC(=O)NCc5cccc(F)c5)cc4)cc3)[nH]c12`: the XC50 came out at 1300 nM.

With `Cc1ccc(CC(C)NCC(O)c2cccc(Br)c2)cc1` (stereo not given), the XC50 was found to be 802 nM.

`Cc1ccc(F)cc1S(=O)(=O)Nc1ccc(CCN2CCC(N3CCCCC3)CC2)cc1` showed an XC50 of 719 nM.

In turn, `c1ccc(COc2ccccc2COc2ccccc2-c2ccc3cccnc3n2)cc1` returned an XC50 of 921 nM.

For `CCCC/C=C(\Cl)c1ccc(O)c2c1C[C@H]1C[C@H]3[C@H](N(C)C)C(O)=C(C(N)=O)C(=O)[C@@]3(O)C(O)=C1C2=O`, the XC50 worked out at 1090 nM.

Molecule `CN1CCN(CCCN(Cc2ccc(-c3cccc(CNC4CCCC4)c3)cc2)C(=O)/C=C/c2ccccc2)CC1` returned an XC50 of 1330 nM.

Molecule `CC(C)(C)c1ccc2[nH]c(-c3ccc(/C=C/C(=O)NCc4ccc(Cl)c(Cl)c4)cc3)nc2c1` registered an XC50 of 35.4 nM.

In turn, `Cc1cccc2nc(-c3ccc(-c4ccc(CNCc5cnn(-c6ccccc6)n5)cc4)cc3)[nH]c12` yielded an XC50 of 428 nM.

`O=C(Cc1ccc(Cl)cc1)NC1CCN(c2ccnc3cc(Cl)ccc23)C1` (stereo not given): the XC50 stood at 226 nM.

The molecule `CC1CC(NCCCNc2cc(=O)c3ccccc3[nH]2)c2cc(Cl)c(Cl)c(Cl)c21` (stereo not given) yielded an XC50 of 724 nM.

`COc1ccc(-c2nc(NC(=O)CSc3ccccc3)sc2C)cc1` displayed an XC50 of 764 nM.

With `c1cc(-c2ccc(CNCCCN3CCOCC3)cc2)cc(-c2nc3ccccc3[nH]2)c1`, the XC50 amounted to 207 nM.

Regarding `c1cc(CN2CCc3ccccc3CC2)cc(-c2c[nH]c3nc(NC4CCCC4)ncc23)c1`, the XC50 was determined as 800 nM.

As to `CC(C)CC(NC(=O)c1ccc(F)cc1)C(=O)N[C@H](/C=N/N1CCNC1=O)CC(C)C` (stereo not given in full), the XC50 came out at 1030 nM.

In turn, `Clc1ccc(-c2cnc3ccc(NCc4ccncc4)nn23)cc1` displayed an XC50 of 891 nM.

`c1ccc(CN2CCC(NCc3cccc(-c4cncc5ccccc45)c3)CC2)cc1` registered an XC50 of 1360 nM.

In the case of `CN1CCc2ccc(NC(=O)Nc3cccc(C(=O)c4ccccc4)c3)cc2C1`, the XC50 is 917 nM.

Regarding `N#CC1(c2ccccc2)CCN(c2nc(NCCCN3CCCC3=O)nc(N3CCCC4CCCCC43)n2)CC1` (stereo not given), the XC50 worked out at 864 nM.

In turn, `CCCN1CCN(CCCNc2c3ccccc3nc3ccccc23)CC1` returned an XC50 of 547 nM.

As to `O=C(NC1CC1)c1ccc(Nc2nccc(-c3c(-c4cccc(NC(=O)c5c(F)cccc5F)c4)nn4ccccc34)n2)cc1`, the XC50 worked out at 411 nM.

Regarding `COc1ccc2nccc([C@@H](O)CN3CCC(NC(=O)c4cccc(-c5cc(C)no5)c4)CC3)c2c1`, the XC50 worked out at 345 nM.

The molecule `CC(C)CCN1CCCN(Cc2ccc(C(=O)Nc3ccc(F)c(F)c3)cc2)CC1` yielded an XC50 of 944 nM.

In turn, `CCCN(CCC)C(=O)c1cc(C(=O)N[C@@H](Cc2ccccc2)[C@H](O)CNCc2cccc(OC)c2)cc(N2CCCCS2(=O)=O)c1` had an XC50 of 549 nM.

Molecule `O=C(NC1CC1)c1ccc(N2CCOc3ccc(Cl)cc32)s1` had an XC50 of 803 nM.

As to `Cc1ccc2[nH]c(-c3ccccc3Nc3ccnc4cc(-c5nccs5)ccc34)nc2c1`, the XC50 worked out at 190 nM.

In turn, `CCCC1(NC[C@@H](O)[C@H](Cc2ccccc2)NC(=O)c2cc(NCC)cc(N3CCCCS3(=O)=O)c2)CC1` registered an XC50 of 1080 nM.

`O=C(Nc1ccc(Cl)cc1F)N[C@H]1CCN(CCCCCNC(=O)C2CC2c2ccc(Cl)c(Cl)c2)C1` (stereo not given in full) showed an XC50 of 1090 nM.

`O=C(c1ccccc1)C1CC1CN1CC=C(c2c[nH]c3ccccc23)CC1` (stereo not given): the XC50 was 525 nM.

As for `O=C(/C=C/c1ccc([N+](=O)[O-])cc1)N1CCC(NS(=O)(=O)c2cccc(C(F)(F)F)c2)CC1`, the XC50 was determined as 847 nM.

For the molecule `Cc1cccc(C(=O)Nc2ccnc(N3CCC(N(C)Cc4cccc(C#N)c4)CC3)c2)c1`, the XC50 was found to be 1100 nM.

Regarding `COc1ccccc1-n1c(SCC(=O)Nc2ccccc2F)nc2cccnc21`, the XC50 amounted to 417 nM.
